Measured values: patent US20240101576A1, “HETEROCYCLIC INHIBITORS OF EGFR AND/OR HER2, FOR USE IN THE TREATMENT OF CANCER” (Scorpion Therapeutics, Inc., priority 2020, published 2024)

How the values were obtained:
Type in all cases: cell-based
[1] = biological target: T1, EGFR exon 20 ASV Ins V769_D770 (Ba/F3 cells) (Homo sapiens, UniProt P00533, INS769ASV); assay: Inhibitor activity on EGFR-dependent cell growth (CellTiter-Glo, 72 h), Ba/F3 EGFR exon 20 ASV Ins; settings: read-out: BaF3 ASV IC50
T1 construct: expressed in transfected cells; host or cells: Ba/F3 (murine pro-B cells), retroviral transduction, puromycin selection, IL3-independent pool
How it was run: (§1)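 IC50s derive from a sigmoidal dose–response fit of CellTiter-Glo signal. The signal was normalised between […]-treated cells and cell-free medium. Ba/F3 mutant-EGFR cells, seeded at 400–800/well depending on the line, had 72 h of exposure to a 10-point, 3-fold compound series.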

EGFR WT (Ba/F3 cells) = biological target: T2, EGFR WT (Ba/F3 cells) (Homo sapiens, UniProt P00533); assay: Inhibitor activity on EGFR-dependent cell growth (CellTiter-Glo, 72 h), Ba/F3 EGFR WT; settings: read-out: BaF3 WT IC50
T2 construct: expressed in transfected cells; host or cells: Ba/F3 (murine pro-B cells), retroviral transduction, puromycin selection, maintained with EGF
T2 sequence (P00533 25-1210): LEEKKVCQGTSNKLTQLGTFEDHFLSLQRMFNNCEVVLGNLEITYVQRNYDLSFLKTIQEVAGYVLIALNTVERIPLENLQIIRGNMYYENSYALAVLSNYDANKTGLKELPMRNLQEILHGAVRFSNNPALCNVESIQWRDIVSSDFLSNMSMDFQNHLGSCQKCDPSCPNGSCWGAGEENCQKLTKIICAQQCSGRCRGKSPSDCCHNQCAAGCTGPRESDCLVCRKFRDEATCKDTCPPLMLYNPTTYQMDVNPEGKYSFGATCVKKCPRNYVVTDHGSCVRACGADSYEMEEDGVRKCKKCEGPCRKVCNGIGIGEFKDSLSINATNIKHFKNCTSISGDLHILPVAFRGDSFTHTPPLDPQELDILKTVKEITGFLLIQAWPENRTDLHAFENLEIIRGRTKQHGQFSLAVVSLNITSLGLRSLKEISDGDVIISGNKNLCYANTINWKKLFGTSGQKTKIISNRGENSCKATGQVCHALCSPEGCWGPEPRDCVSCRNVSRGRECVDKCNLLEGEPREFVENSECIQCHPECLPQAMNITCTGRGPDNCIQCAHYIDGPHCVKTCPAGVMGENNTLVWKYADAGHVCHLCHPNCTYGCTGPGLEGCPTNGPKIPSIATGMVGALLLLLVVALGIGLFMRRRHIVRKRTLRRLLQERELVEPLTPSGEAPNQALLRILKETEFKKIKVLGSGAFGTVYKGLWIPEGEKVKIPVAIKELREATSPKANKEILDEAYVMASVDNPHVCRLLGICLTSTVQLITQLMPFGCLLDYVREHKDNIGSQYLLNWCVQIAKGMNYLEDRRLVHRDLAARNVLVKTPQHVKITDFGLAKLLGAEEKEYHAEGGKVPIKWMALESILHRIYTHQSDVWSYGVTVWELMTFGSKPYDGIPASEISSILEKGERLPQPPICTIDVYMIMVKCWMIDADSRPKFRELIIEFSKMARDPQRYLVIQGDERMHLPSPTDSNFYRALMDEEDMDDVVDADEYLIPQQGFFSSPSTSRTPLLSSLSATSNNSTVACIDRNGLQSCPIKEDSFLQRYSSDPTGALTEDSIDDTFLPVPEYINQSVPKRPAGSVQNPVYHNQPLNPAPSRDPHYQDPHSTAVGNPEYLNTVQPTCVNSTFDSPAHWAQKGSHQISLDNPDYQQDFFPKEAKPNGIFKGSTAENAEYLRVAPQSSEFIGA
How it was run: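 This growth assay used Ba/F3 cells that depend on wild-type EGFR and are kept in EGF without IL3. Compounds were made up as 10 mM DMSO stocks and diluted 3-fold over 10 points. 120 nL went onto 600 cells/well. After 72 hours, 40 μL CellTiter-Glo was added and luminescence read on EnVision after 30 min.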

[2] = biological target: T1, EGFR exon 20 ASV Ins V769_D770 (Ba/F3 cells); assay: Inhibitor activity on EGFR phosphorylation (pEGFR AlphaLISA, 2 h), Ba/F3 EGFR exon 20 ASV Ins; settings: EGFR phosphorylation, AlphaLISA, 2 hours; read-out: ASV IC50 (pEGFR)
How it was run: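 Ba/F3 cells made IL3-independent by retroviral EGFR mutant expression (puromycin-selected, pooled) and CUTO14 cells were seeded at 50K or 12.5K cells/well, respectively. They were treated 2 h with a 3-fold, 10-point compound series, lysed, and phospho-EGFR was read by AlphaLISA to give IC50.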

[3] = biological target: T3, EGFR exon 20 SVD Ins D770_N771 (Ba/F3 cells) (Homo sapiens, UniProt P00533, INS770SVD); assay: Inhibitor activity on EGFR-dependent cell growth (CellTiter-Glo, 72 h), Ba/F3 EGFR exon 20 SVD Ins; settings: read-out: BaF3 SVD IC50
T3 construct: expressed in transfected cells; host or cells: Ba/F3 (murine pro-B cells), retroviral transduction, puromycin selection, IL3-independent pool
T3 sequence (P00533 with tags, fused parts or gaps INS770SVD): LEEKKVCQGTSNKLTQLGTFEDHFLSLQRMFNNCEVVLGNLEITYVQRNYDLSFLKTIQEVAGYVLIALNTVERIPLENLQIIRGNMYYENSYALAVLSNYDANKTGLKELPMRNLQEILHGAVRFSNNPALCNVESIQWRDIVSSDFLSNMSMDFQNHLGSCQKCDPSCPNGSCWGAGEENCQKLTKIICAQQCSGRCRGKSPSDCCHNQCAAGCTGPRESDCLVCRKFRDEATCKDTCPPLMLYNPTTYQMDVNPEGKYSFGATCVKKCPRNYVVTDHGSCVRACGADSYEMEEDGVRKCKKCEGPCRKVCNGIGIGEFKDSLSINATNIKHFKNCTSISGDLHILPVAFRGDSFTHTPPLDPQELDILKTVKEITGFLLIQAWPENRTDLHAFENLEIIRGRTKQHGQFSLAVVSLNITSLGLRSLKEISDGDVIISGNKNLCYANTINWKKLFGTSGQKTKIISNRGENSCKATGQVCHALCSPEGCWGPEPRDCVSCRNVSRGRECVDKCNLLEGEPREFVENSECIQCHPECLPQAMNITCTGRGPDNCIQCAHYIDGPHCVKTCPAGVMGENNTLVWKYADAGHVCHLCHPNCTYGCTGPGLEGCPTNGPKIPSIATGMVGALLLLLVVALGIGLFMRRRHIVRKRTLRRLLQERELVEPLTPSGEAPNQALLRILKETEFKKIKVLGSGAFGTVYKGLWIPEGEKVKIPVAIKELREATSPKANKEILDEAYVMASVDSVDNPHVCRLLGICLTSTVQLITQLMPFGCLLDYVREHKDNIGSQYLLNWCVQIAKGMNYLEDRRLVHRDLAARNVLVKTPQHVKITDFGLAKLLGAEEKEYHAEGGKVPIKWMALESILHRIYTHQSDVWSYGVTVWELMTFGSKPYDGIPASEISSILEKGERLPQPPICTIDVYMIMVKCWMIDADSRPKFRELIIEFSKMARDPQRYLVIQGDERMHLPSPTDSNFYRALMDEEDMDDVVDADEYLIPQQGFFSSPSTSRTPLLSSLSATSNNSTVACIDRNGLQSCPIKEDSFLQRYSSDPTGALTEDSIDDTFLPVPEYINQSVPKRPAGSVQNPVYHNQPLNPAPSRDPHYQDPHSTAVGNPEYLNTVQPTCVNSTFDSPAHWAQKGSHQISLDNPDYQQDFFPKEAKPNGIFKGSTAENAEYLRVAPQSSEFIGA
How it was run: as §1

[4] = biological target: T4, EGFR exon 20 NPG Ins D770_N771 (Ba/F3 cells) (Homo sapiens, UniProt P00533, INS770NPG); assay: Inhibitor activity on EGFR-dependent cell growth (CellTiter-Glo, 72 h), Ba/F3 EGFR exon 20 NPG Ins; settings: read-out: BaF3 NPG IC50
T4 construct: expressed in transfected cells; host or cells: Ba/F3 (murine pro-B cells), retroviral transduction, puromycin selection, IL3-independent pool
T4 sequence (P00533 with tags, fused parts or gaps INS770NPG): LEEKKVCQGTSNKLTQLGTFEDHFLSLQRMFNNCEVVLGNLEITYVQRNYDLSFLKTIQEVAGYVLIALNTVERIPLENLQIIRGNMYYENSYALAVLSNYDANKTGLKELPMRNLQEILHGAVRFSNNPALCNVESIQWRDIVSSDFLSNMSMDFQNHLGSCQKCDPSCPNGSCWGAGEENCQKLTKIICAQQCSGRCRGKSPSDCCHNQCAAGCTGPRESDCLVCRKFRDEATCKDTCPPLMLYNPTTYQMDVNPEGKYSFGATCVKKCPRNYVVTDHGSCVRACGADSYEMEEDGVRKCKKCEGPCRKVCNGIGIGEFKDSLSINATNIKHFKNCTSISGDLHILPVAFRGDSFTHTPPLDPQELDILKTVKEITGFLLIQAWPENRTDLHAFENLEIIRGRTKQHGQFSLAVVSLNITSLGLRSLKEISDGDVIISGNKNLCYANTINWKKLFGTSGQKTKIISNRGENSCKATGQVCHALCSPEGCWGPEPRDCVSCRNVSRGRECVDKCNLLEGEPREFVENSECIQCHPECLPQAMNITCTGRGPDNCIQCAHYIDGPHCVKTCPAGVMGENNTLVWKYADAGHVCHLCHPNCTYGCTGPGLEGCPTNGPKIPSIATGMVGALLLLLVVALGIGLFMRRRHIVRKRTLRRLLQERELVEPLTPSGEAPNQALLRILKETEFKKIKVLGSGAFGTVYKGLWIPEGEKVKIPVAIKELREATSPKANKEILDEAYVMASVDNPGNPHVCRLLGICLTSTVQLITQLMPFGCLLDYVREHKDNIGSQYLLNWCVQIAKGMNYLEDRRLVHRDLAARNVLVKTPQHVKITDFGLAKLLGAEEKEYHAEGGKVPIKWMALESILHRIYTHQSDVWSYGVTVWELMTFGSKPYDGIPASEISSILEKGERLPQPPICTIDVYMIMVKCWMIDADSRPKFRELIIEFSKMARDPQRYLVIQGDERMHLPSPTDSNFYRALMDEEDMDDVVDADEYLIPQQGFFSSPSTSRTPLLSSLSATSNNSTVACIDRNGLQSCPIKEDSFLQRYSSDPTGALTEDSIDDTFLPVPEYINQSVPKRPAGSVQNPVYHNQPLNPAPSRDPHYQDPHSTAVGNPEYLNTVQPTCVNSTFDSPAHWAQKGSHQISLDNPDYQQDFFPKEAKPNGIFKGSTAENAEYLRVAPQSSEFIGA
How it was run: as §1

[5] = biological target: T5, EGFR exon 20 FQEA Ins A763_V764 (Ba/F3 cells) (Homo sapiens, UniProt P00533, INS763FQEA); assay: Inhibitor activity on EGFR-dependent cell growth (CellTiter-Glo, 72 h), Ba/F3 EGFR exon 20 FQEA Ins; settings: read-out: BaF3 FQEA IC50
T5 construct: expressed in transfected cells; host or cells: Ba/F3 (murine pro-B cells), retroviral transduction, puromycin selection, IL3-independent pool
T5 sequence (P00533 with tags, fused parts or gaps INS763FQEA): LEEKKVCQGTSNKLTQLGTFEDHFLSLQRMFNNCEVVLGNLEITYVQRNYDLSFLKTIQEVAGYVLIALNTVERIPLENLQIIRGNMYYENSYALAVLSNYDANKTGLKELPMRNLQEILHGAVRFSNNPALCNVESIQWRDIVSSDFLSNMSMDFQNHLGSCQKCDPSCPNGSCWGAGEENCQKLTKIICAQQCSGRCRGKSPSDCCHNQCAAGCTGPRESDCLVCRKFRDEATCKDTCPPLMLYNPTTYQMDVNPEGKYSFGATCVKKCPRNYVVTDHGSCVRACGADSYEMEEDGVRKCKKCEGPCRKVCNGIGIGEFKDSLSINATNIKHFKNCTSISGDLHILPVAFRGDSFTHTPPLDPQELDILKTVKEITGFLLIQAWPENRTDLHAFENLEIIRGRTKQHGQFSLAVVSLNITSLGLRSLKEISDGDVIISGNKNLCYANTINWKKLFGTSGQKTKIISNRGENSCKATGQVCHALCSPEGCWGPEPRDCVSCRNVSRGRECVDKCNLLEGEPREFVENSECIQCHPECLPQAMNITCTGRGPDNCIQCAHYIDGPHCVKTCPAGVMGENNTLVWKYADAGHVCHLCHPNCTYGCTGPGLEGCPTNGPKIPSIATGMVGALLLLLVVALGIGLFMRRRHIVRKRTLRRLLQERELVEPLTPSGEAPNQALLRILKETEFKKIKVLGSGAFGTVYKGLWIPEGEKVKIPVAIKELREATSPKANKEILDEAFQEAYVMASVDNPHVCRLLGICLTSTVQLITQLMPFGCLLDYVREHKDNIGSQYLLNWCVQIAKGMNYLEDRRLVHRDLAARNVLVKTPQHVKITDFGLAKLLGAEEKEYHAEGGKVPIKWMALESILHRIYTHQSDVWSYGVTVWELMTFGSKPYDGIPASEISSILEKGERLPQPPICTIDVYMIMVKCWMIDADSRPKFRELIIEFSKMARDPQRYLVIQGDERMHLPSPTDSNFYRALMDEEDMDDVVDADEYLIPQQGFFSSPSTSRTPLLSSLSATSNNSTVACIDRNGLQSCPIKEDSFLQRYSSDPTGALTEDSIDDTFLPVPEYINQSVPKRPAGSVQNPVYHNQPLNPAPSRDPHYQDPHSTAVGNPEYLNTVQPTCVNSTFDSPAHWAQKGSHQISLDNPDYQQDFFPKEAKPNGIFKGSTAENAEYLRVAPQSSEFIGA
How it was run: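 Ba/F3, retrovirally transduced, puromycin-selected, grown without IL3; cells/well: L858R 400, L858R/C797S 600, exon 19del 800, FQEA 800. Cpds from 10 mM DMSO stock, 3-fold ×10 dilution, 120 nL per well; 72 h. CTG readout; IC50 via Hill equation.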

[6] = biological target: T4, EGFR exon 20 NPG Ins D770_N771 (Ba/F3 cells); assay: Inhibitor activity on EGFR phosphorylation (pEGFR AlphaLISA, 2 h), Ba/F3 EGFR exon 20 NPG Ins
Text: Example B. Inhibitor Activity on EGFR phosphorylation (pEGFR)
EGFR mutant Ba/F3 cells were generated by transduction with retrovirus containing vectors expressing EGFR L858R, EGFR exon 19del, EGFR L858R/C797S, EGFR exon 20 NPG Ins D770_N771, EGFR exon 20 ASV Ins V769_D770, or EGFR exon 20 SVD Ins D770_N771 genes along with a puromycin selection marker. Transduced cells are selected with puromycin for 7 days and are then be transferred into culture media without Interleukin 3 (IL3). Surviving cells are confirmed to express EGFR by Western blot and maintained as a pool. CUTO14 cells were obtained from Dr. Robert C. Doebele at the University of Colorado. The IC50 date are included in Table 6 and Table 7.
(§2) 1.1 Cells are harvested from flask into cell culture medium and the cell number counted.
1.2 Cells are diluted with culture medium to the desired density and 40 μL of cell suspension is added into each well of 384-well cell culture plate and the seeding density is 50K cells/well (Ba/F3) or 12.5K cells/well (CUTO14).
(§3) 2 Compound Preparation and Treatment
(§4) 2.1 Test compounds are dissolved to 10 mM in a DMSO stock solution. 45 μL of stock solution is transferred to a 384 polypropylene plate (pp-plate). Perform 3-fold, 10-point dilution via transferring 15 μL compound into 30 μL DMSO using a TECAN (EVO200) liquid handler.
(§5) 2.2 Spin plates at room temperature at 1,000 RPM for 1 minute.
2.3 Transfer 5 nL of diluted compound from compound source plate into the cell plate.
2.4 After compound treatment for 2 hours, perform pEGFR detection by AlphaLISA for compound treatment plates as described in “Detection” section.
3 Detection by pEGFR AlphaLISA (Perkin-Elmer)
3.1 Plates are removed from incubators and equilibrated at room temperature for 10 minutes, and media was removed
3.2 10 μL of lysis buffer is added and plates shaken at 600 rpm for 1 hr.
3.3 Prepare acceptor mix just before use and dispense 5 μL of acceptor mix to all the wells. Shake 350 rpm for Ihr in the dark
3.4 Prepare donor mix under low light conditions prior to use. Dispense 5 μL of donor mix to all the wells. Mix well on the shaker, seal and wrap in aluminum foil and incubate 1.5 hrs at room temperature in the dark
3.5 Transfer 18.5 μL mixture to OptiPlate 384, and read using an Envision. The IC50 date were included in Table 6 and Table 7.

EGFR L858R (Ba/F3 cells) = biological target: T6, EGFR L858R (Ba/F3 cells) (Homo sapiens, UniProt P00533, L858R); assay: Inhibitor activity on EGFR-dependent cell growth (CellTiter-Glo, 72 h), Ba/F3 EGFR L858R; settings: read-out: BaF3 L858R IC50
T6 construct: expressed in transfected cells; host or cells: Ba/F3 (murine pro-B cells), retroviral transduction, puromycin selection, IL3-independent pool
Text: (§6) Example A. Inhibitor Activity on EGFR-Dependent Cell Growth
(§7) Cell lines are generated by transducing Ba/F3 cells with retroviruses containing vectors with EGFR WT, EGFR L858R, EGFR exon 19del, EGFR L858R/C797S, EGFR exon 20 NPG Ins D770_N771, EGFR exon 20 ASV Ins V769_D770, EGFR exon 20 SVD Ins D770_N771, or EGFR exon 20 FQEA Ins A763_V764 genes and a puromycin selection marker. Transduced cells are selected with puromycin for 7 days and are then be transferred into culture media without Interleukin 3 (IL3). EGFR WT cells are maintained with supplemental EGF. Surviving cells are confirmed to express EGFR by Western blot and maintained as a pool. The IC50 date were included in Table 6 and Table 7.
as §2
(§8) 1.2 Cells are diluted with culture medium to the desired density and 40 μL of cell suspension is added into each well of 384-well cell culture plate and the seeding density is 800 (FQEA, exon 19del), 600 (WT, NPG, L858R/C797S), or 400 (ASV, SVD, L858R) cells/well.
as §3, §4, §5
(§9) 2.3 Transfer 120 nL of diluted compound from compound source plate into the cell plate.
(§10) 2.4 After compound treatment for 72 hours, perform CTG detection for compound treatment plates as described in “Detection” section.
(§11) 3.1 Plates are removed from incubators and equilibrated at room temperature for 15 minutes.
(§12) 3.2 Thaw the CellTiter Glo reagents and allow to equilibrate to room temperature before the experiment.
(§13) 3.3 Add 40 μL of CellTiter-Glo reagent into each well (at 1:1 to culture medium). Then place the plates at room temperature for 30 min followed by reading on EnVision.
(§14) 4.1 Inhibition activity is calculated following the formula below:
(§15) % Inhibition=100×(LumHC−LumSample)/(LumHC−LumLC) • where HC is obtained from cells treated with 0.1% DMSO only; and LC is obtained from culture medium only.
(§16) 4.2 2. Calculate the IC50 by fitting the Curve using Xlfit (v5.3.1.3), equation 201.
(§17) Y=Bottom+(Top−Bottom)/(1+10^((Log IC50−X)*HillSlope))

[7] = biological target: EGFR exon 19del (Ba/F3 cells) (Homo sapiens, UniProt P00533); assay: Inhibitor activity on EGFR-dependent cell growth (CellTiter-Glo, 72 h), Ba/F3 EGFR exon 19del; settings: Ba/F3 EGFR exon 19del cell growth, read-out: BaF3 Del19 IC50
Text: as §6, §7, §2, §8, §3, §4, §5, §9, §10, §11, §12, §13, §14, §15, §16, §17

Row | SMILES | IC50 [1] [nM] | IC50 (EGFR WT (Ba/F3 cells)) [nM] | IC50 [2] [nM] | IC50 [3] [nM] | IC50 [4] [nM] | IC50 [5] [nM] | IC50 [6] [nM] | IC50 (EGFR L858R (Ba/F3 cells)) [nM] | IC50 [7] [nM]
1 | COc1c(Cl)cccc1Nc1c(-c2ccnc(NC(=O)C3CC3)n2)[nH]c2c1C(=O)NCC2 [compound 221] | 100 to 1000 | > 1000 | 100 to 1000 | 100 to 1000 | 100 to 1000 | 100 to 1000 | < 100 |  | 
2 | COc1c(Cl)cccc1Nc1c(-c2ccnc(N)c2)[nH]c2c1C(=O)NCC2 [compound 285] | 100 to 1000 | > 1000 | < 100 | 100 to 1000 | 100 to 1000 | 100 to 1000 | < 100 |  | 
3 | COc1c(Cl)cccc1Nc1c(-c2ccnc3c2OCC(=O)N3)[nH]c2c1C(=O)NCC2 [compound 308] | 100 to 1000 | > 1000 | < 100 | 100 to 1000 | 100 to 1000 | 100 to 1000 | < 100 |  | 
4 | COCC[C@@H]1CNC(=O)c2c1[nH]c(-c1ccncc1F)c2Nc1cccc(F)c1C [compound 823] | < 100 | < 100 |  | < 100 |  | < 100 |  | < 100 | < 100

More lines, now with the values ahead:

Row | IC50 [1] [nM] | IC50 (EGFR WT (Ba/F3 cells)) [nM] | IC50 [2] [nM] | IC50 [3] [nM] | IC50 [4] [nM] | IC50 [5] [nM] | IC50 [6] [nM] | IC50 (EGFR L858R (Ba/F3 cells)) [nM] | IC50 [7] [nM] | SMILES
5 | > 1000 | > 1000 | > 1000 | > 1000 | > 1000 | > 1000 | 100 to 1000 |  |  | COc1nccc(-c2[nH]c3c(c2Nc2cccc(Cl)c2OC)C(=O)NCC3)n1 [compound 286]
6 | < 100 | < 100 | < 100 | < 100 | < 100 | < 100 | < 100 |  |  | COCCOc1ccc2nccc(-c3[nH]c4c(c3Nc3cccc(Cl)c3OC)C(=O)NCC4)c2n1 [compound 678, 3-[(3-chloro-2-methoxyphenyl)amino]-2-[6-(2-methoxyethoxy)-1,5-naphthyridin-4-yl]-1H,5H,6H,7H-pyrrolo[3,2-c]pyridin-4-one]
7 | < 100 | < 100 |  | < 100 | < 100 | < 100 |  | < 100 | < 100 | COCc1ccc2nccc(-c3[nH]c4c(c3Nc3cccc(Cl)c3OC)C(=O)NCC4)c2n1 [compound 679, 3-[(3-chloro-2-methoxyphenyl)amino]-2-[6-(methoxymethyl)-1,5-naphthyridin-4-yl]-1H,5H,6H,7H-pyrrolo[3,2-c]pyridin-4-one]
